Data published in patent publication US20090186009A1, “SOLID MATTER CONTAINING COENZYME Q” (Kaneka Corporation, priority 2006, published 2009).

Test: Crystallization rate of coenzyme Q10 in granule by differential scanning calorimetric analysis
Assay type: physicochemical
Details: DSC, calculated from melting heat (ΔH); 20° C.→80° C. (5° C./min)→−50° C.
Protocol: Calorimetric analysis of coenzyme Q10 granules obtained in Example 1 and Example 4 and oxidized coenzyme Q10 powder (Kaneka-coenzyme Q10) used as the starting material in Preparation Examples 1-3 by a differential scanning calorimetric analyzer (manufactured by SII; EXSTAR6000 DSC6220) was performed under the following conditions. The crystallization rate was calculated from the measurement value of the melting heat (ΔH).
Analysis conditions; 20° C.→80° C. (5° C./min)→−50° C. (−5° C./min)

crystallinity degree: 100%
SMILES: COC1=C(OC)C(=O)C(C/C=C(\C)CC/C=C(\C)CC/C=C(\C)CC/C=C(\C)CC/C=C(\C)CC/C=C(\C)CC/C=C(\C)CC/C=C(\C)CC/C=C(\C)CCC=C(C)C)=C(C)C1=O [Kaneka coenzyme Q10, oxidized coenzyme Q10]
